Reference: US6593331B2, “Method for treatment of pain” (Laboratories UPSA, priority 2001, dated 2003)

How the values were obtained:
[1] = system: albino rats; assay: rat hindpaw thermal escape paradigm (hindpaw withdrawal test for analgesia, acute pain); type: in vivo; settings: for analgesic effect of co-administration with acetaminophen compared to either compound given alone: hydroxyazapirone 5 mg/kg + acetaminophen 300 mg/kg, ip; for hindpaw thermal escape response/latency compared to vehicle (saline+PETW): n=5-8 rats per group
From the text: To assess the thermally evoked paw-withdrawal response, a commercially available device was used. Specifics of device construction and operation have been published previously (Dirig D M, Salami A, Rathbun M L, Ozaki G T, Yaksh T L. Characterization of variables defining hindpaw withdrawal latency evoked by radiant thermal stimuli. J Neurosci Methods. Oct. 3, 1997; 76(2):183-91). This device is comprised of a glass surface on which the rats were placed individually in Plexiglas cubicles (9×22×25 cm). The surface is maintained at 30° C. by a feedback-controlled, under-glass, forced-air heating system. The thermal nociceptive stimulus originates from a projection bulb below the glass that can be manipulated in a two-dimensional axis on ball bearing slides. This apparatus allows the stimulus to be delivered separately to each hind paw with the aid of an angled mirror mounted on the stimulus source. A timer is actuated with the light source, and escape latency is defined as the time between stimulus onset and the display of a brisk paw withdrawal (detected by photodiode motion sensors that stops the timer and terminates the stimulus; cut-off time for a non-response is 20 sec which triggers automatic termination of the stimulus). In the present study, animals are placed in test boxes for 30 min acclimation and then baseline escape latency is assessed separately for each hindpaw (left and right) at −15 min. All drugs are delivered at 0 min by the intraperitoneal (i.p.) route in a volume of 3 ml/kg. The vehicle for 6-hydroxybuspirone was 0.9% sodium chloride (Saline). For 3-hydroxygepirone the vehicle was deionized H2O plus a few drops of hydrochloric acid. For acetaminophen (Sigma, A7085) the vehicle was 40% polyethylene glycol 400 (PEG-400), 10% EtOH, 15% Tween 80, and 35% deionized H2O (PETW). Acetaminophen was disolved sequentially in two parts: 1) first into a solution of 80% PEG 400+20% EtOH, and 2) then slowly added to it was an equal volume of 30% Tween 80+70% deionized H2O (sonicated as needed). Each animal received two injections at time zero. Specifically, animals were tested in one of the following 6 treatment conditions (abbreviations used in figures are shown under “Key” below):
Following drug administration, thermal escape latencies are measured at 15, 30, 60, 90 and 120 min (mean of both paws is used for statistical analysis).

[2] = system: mouse; assay: mouse hot plate test (procedure of Eddy, et al.); type: in vivo; settings: 6-hydroxybuspirone to acetaminophen weight ratios of 1:3, 1:10 and 1:30
[3] = hydroxyazapirone alone, 5 mg/kg ip
[4] = acetaminophen alone, 300 mg/kg ip

| Structure (SMILES) | time of peak analgesic effect post injection ([1]; 3-hydroxygepirone alone, 5 mg/kg ip) | analgesic effect of co-administration with acetaminophen compared to either compound given alone [1] | hindpaw thermal escape response/latency compared to vehicle (saline+PETW) [1, 3] | potentiation of acetaminophen in hot plate test [2] | time of peak analgesic effect post injection [1, 4] | hindpaw thermal escape response/latency compared to vehicle (saline+PETW) [1, 4] |
| --- | --- | --- | --- | --- | --- | --- |
| CC1(C)CC(=O)N(CCCCN2CCN(c3ncccn3)CC2)C(=O)C1O (centres unmarked) [3-hydroxygepirone, 4,4-Dimethyl-3-hydroxy-1-[4-[4-(2-pyrimidinyl)-1-piperazinyl]butyl]-2,6-piperidinedione] | 120 min | analgesic enhancing effect | elevated significantly above vehicle | – | – | – |
| O=C1CC2(CCCC2)C(O)C(=O)N1CCCCN1CCN(c2ncccn2)CC1 (centres unmarked) [6-hydroxybuspirone, 6-Hydroxy-8-[4-[4-(2-pyrimidinyl)-piperazinyl]-butyl]-8-azaspiro[4.5]-7,9-dione] | – | analgesic enhancing effect | elevated significantly above vehicle | potentiation of acetaminophen | – | – |
| CC(=O)Nc1ccc(O)cc1 [acetaminophen, reference compound] | – | – | – | – | 120 min | elevated significantly above vehicle |
